Assays:
Assay type in all cases: in vivo
[1] = tested on: adult engorged female ticks (Rhipicephalus microplus); assay: Rhipicephalus (Boophilus) microplus injection test; conditions: 168 h, application rate 4 μg/tick, egg deposition after 7 days, read-out: activity (efficacy: infertile eggs)
Method in brief: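 Efficacy is scored from egg fertility, with 100% meaning every egg infertile and 0% every egg fertile. Five engorged females per test received 1 μL DMSO solution abdominally. Eggs of unclear fertility were kept until hatching, about 42 days.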

[2] = tested on: adult unfed cat fleas (Ctenocephalides felis); assay: Ctenocephalides felis oral test; conditions: 48 h, read-out: activity (mortality)
Method in brief: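 About 20 adult unfed cat fleas fed through parafilm on citrated cattle blood containing compound (from a DMSO concentrate). Blood held at 37° C, fleas at room temperature. Mortality in % scored after 2 days.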

[3] = tested on: adult brown dog ticks (Rhipicephalus sanguineus); assay: Rhipicephalus sanguineus in-vitro contact test, adult brown dog ticks; conditions: application rate 5 μg/cm^2 (=500 g/ha), after 48 hours, read-out: activity (efficacy: ticks dead or moribund)
Method in brief: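 Compound in acetone was coated onto inner walls of glass tubes by rotation (2 h, 30 rpm); 900 ppm gives 5 μg/cm^2. After drying, 5-10 adult ticks were enclosed per tube at room temperature; after 48 h, heat-escape test at 45-50° C scored dead/moribund ticks as % efficacy.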

[4] = tested on: larvae of the banded cucumber beetle (Diabrotica balteata); assay: Diabrotica balteata spray test; conditions: 168 h, application rate 100 g/ha (=32 μg/well), after 7 days, wheat seeds, read-out: activity (efficacy: seedlings grown)
Method in brief: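 Wheat seeds germinated 1 day on agar were sprayed with compound diluted in water with 1000 ppm emulsifier, then infested with 10-20 Diabrotica balteata larvae. Efficacy in % scored after 7 days: 100% = seedlings grown as untreated, uninfected control; 0% = no seedlings grown.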

[5] = tested on: green peach aphid (Myzus persicae); assay: Myzus persicae oral test; conditions: 120 h, read-out: activity (mortality)
Method in brief: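 Acetone stock (1 pbw compound/100 pbw solvent) diluted in water; mixed with sugar-supplemented IPL41 medium; parafilm-sealed; mixed aphid population sucks through film; mortality % read at 5 d.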

[6] = tested on: fall armyworm larvae (Spodoptera frugiperda); assay: Spodoptera frugiperda spray test; conditions: 168 h, application rate 100 g/ha, after 7 days, maize leaf sections
Method in brief: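 Maize leaf sections were sprayed with compound formulated in solvent and diluted in water containing 1000 ppm emulsifier, then infested with fall armyworm larvae after drying. Percent mortality was scored after 7 days (100% = all caterpillars dead, 0% = none).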

[7] = tested on: adult mosquitoes Aedes aegypti strain MONHEIM; assay: Aedes aegypti test (AEDSAE surface treatment & contact assay); conditions: 24 hours after contact, read-out: efficacy (mortality); for mortality at 20 mg/m2: surface concentration 20 mg/m^2, exposure 30 minutes
Method in brief: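 Compound in acetone (2 mg/ml) with 2000 ppm RME dried onto glazed tile; adults exposed to the treated surface for 30 min. Percent mortality scored 24 h after contact.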

[8] = tested on: adult flies Musca domestica strain WHO-N; assay: Musca domestica test (MUSCDO surface treatment & contact assay); conditions: 24 hours after contact, read-out: efficacy (mortality); for mortality at 4 mg/m2: surface concentration 4 mg/m^2, exposure 30 minutes; for mortality at 20 mg/m2: surface concentration 20 mg/m^2, exposure 30 minutes
Method in brief: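 Compound dissolved at 2 mg/ml in acetone with 2000 ppm RME, applied to glazed tile and dried; adult flies exposed on the surface for 30 min. Percent mortality scored 24 h after contact.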

Compound | pest or weed control at 0.004 mg [1] | mortality at 100 ppm [2] | pest or weed control at 5 µg/cm2, 500 g/ha [3] | pest or weed control at 32 µg/disc, 100 g/ha [4] | mortality at 4 ppm [5] | mortality at 100 g/ha [6] | mortality at 4 mg/m2 ([7]; surface concentration 4 mg/m^2, exposure 30 minutes) | mortality at 20 mg/m2 [7] | mortality at 4 mg/m2 [8] | mortality at 20 mg/m2 [8]
C[C@@H]1CN(C(=O)c2ccc(-n3ncnc3[C@H](C)NC(=O)c3cc(C(F)(F)F)cc(C(F)(F)F)c3)nc2)C[C@H](C)O1 [Example I-50] | 100% | 100% | 100% | 100% | 100% | 100% | 80 to 100% | 80 to 100% | 80 to 100% | 80 to 100%
C[C@@H]1CN(C(=O)c2ccc(-n3ncnc3[C@H](C)NC(=O)c3cc(OC(F)(F)F)cc(C4CC4)c3)nc2)C[C@H](C)O1 [Example I-114] | 100% | 100% | 100% | 100% | 100% | 100% | – | 80 to 100% | 80 to 100% | 80 to 100%
